Source: patent publication US8222202B2 (priority 2006, dated 2012)
Starred links: 1 amine or outer side, 2 acyl side, 3 side chain; linkers in the order of their positions; H or OH if unused. Positions of bridges follow the written chain, without caps; N, C: chain ends. Non-standard residues stand in square brackets, D forms with d. Residues, ends and D or L forms follow the SMILES beside them. X1 = CCNCCC[C@H](N[*:1])C(=O)[*:2]

How the values were obtained:
hV1a receptor = biological target: T1, hV1a receptor (Homo sapiens, UniProt P37288); test: hV1a receptor transcriptional reporter (luciferase) agonist assay; type: cell-based; conditions: HEK-293 cells transiently transfected with hV1a receptor, 5 hours exposure, geometric mean; read-out: EC50 hV1a receptor
T1 construct: expressed in transfected cells; host or cells: HEK-293

[1] = test system: anaesthetised Sprague-Dawley male rats; test: in vivo duration of action, blood pressure test in anaesthetised rats; set-up: species or system rat; conditions: ratio of decay rate of diastolic blood pressure response, AVP 0.1 nmol/kg i.v. to equieffective dose of compound; dibenamine-pretreated rats
Procedure: Blood pressure tests were carried out on anaesthetised Sprague-Dawley male rats (weighing 270-300 g) with catheterised jugular vein and carotid artery. The catheterised carotid artery was used to continuously monitor blood pressure and the jugular vein was used for administration of the compounds tested. Rats received intravenous injections of dibenamine prior to dosing to enhance their responsiveness to V1a receptor agonists (cf. Dekanski, J., Br. J. Pharmacol. 1952, 7, 567-572). […] Dosing intervals were set as time for the blood pressure to decrease to a stable baseline.
Determination of duration of action was based on the decay rate of diastolic arterial blood pressure transient increase. Specifically, for an exponential decay of plasma concentration, it can be shown that, if the response is measured beyond the distribution phase, the rate of decay near the EC50 is linear and inversely proportional to the elimination half-life (Rowland, M. and Tozer, T. in “Clinical Pharmacokinetics, Concepts and Applications”, 3rd ed., Lippincott Williams & Wilkins, Philadelphia, 1995).

[2] = biological target: T2, human oxytocin (hOT) receptor (Homo sapiens, UniProt P30559); test: luciferase-based transcriptional reporter assay, selectivity hOT versus hV1a; type: cell-based; conditions: class symbol; agonist efficacy at hOT receptor compared to AVP
T2 construct: expressed in transfected cells
T2 sequence (P30559 1-389): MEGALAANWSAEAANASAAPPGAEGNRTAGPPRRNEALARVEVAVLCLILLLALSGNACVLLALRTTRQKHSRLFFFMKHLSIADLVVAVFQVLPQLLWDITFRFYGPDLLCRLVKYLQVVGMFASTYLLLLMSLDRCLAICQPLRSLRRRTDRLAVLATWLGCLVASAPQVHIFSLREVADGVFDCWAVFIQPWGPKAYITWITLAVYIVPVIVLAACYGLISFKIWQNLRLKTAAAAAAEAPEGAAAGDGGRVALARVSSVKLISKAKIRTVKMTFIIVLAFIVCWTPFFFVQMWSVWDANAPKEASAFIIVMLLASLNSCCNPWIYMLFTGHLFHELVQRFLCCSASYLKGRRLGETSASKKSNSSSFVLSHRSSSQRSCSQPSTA

T1 sequence (P37288 whole entry): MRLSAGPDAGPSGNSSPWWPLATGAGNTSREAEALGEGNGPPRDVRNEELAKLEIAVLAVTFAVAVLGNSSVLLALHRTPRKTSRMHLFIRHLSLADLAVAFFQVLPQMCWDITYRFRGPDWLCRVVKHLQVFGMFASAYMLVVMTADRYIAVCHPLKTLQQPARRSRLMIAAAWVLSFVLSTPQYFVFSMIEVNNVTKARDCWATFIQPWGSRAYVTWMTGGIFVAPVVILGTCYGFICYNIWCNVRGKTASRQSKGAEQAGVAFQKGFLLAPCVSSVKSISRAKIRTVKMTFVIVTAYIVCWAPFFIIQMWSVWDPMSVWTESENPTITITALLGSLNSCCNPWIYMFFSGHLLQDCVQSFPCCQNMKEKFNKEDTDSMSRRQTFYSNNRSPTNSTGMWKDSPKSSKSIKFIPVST

- EC50 (hV1a receptor): 0.99 nM
SMILES: CCNCCC[C@H](NC(=O)[C@@H]1CCCN1C(=O)[C@@H]1CSSC[C@H](N)C(=O)N[C@@H](Cc2ccccc2)C(=O)N[C@@H]([C@@H](C)CC)C(=O)N[C@@H](CC(N)=O)C(=O)N[C@@H](CC(N)=O)C(=O)N1)C(=O)NCC(N)=O [Compound 47] (H-CFINNCP[X1]G-NH2; disulfide 1-6; N-terminus and C-terminus assumed)
- in vivo duration relative to AVP [1]: 1.6
- selectivity hOT/hV1a [2]: + (selective hV1a receptor agonist; EC50 hOT/hV1a ratio not determined due to very low agonist efficacy (<30% compared to AVP) at the hOT receptor)
